Test results reported in PMC9343874, “Comparative Pharmacokinetics of Cinobufacini Capsule and Injection by UPLC-MS/MS” (Frontiers in Pharmacology, 2022).
Read-outs that look alike come from different tables or passages of the source.

Columns and labels:
[1] = Stability of analytes in rat plasma QC samples under storage conditions; format: physicochemical; settings: n = 6; for Stability during 24 h at 4°C, RE: post-treatment storage in autosampler; for −80°C for 30 days, RE / Three freeze–thaw cycles, RE: rat plasma; for −80°C for 30 days, RE: long-term; for Three freeze–thaw cycles, RE: −80°C to room temperature
In short: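 QC samples at low, medium and high levels (n=6) were tested after 24 h in the autosampler at 4 °C, after three freeze–thaw cycles from −80 °C to room temperature, and after 30 days at −80 °C. Concentrations were read from daily calibration curves. Stability was accepted when RE and RSD were within ±15% of nominal.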

[2] = Pharmacokinetic study in rats after oral administration of cinobufacini capsule (UPLC-MS/MS of plasma); format: in vivo, rat; settings: male, Sprague-Dawley, in vivo, rat plasma, mean ± SD, n = 6; for CL/F: read-out: CLz/F (converted); for MRT last: read-out: MRT0-t; for MRT inf: read-out: MRT0-∞; for half-life: read-out: T1/2z (converted); for Vd/F: read-out: Vz/F
In short: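 Male SD rats (200–220 g), fasted 12 h, six per group; cinobufacini capsule given orally at three doses or injection intravenously. Retro-orbital plasma sampled 0.05–10 h, extracted with ethyl acetate plus internal standard, quantified by UPLC-MS/MS (ESI+, MRM); parameters calculated by non-compartmental-style software as mean ± SD.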

[3] = Pharmacokinetic study in rats after intravenous administration of cinobufacini injection (UPLC-MS/MS of plasma); format: in vivo, rat
Protocol: Male Sprague–Dawley rats (weighing 200–220 g) of SPF grade were offered by Sippr/BK laboratory Animal, Corp., Ltd. (Shanghai, China) and fed in the Laboratory Animal Center of the Shanghai University of Traditional Chinese Medicine. All the rats were kept under environmentally controlled conditions with constant temperature (22–24°C) and humidity (60–65%). The animal experiment program in the present research was approved by the Animal Committee of the Shanghai University of Traditional Chinese Medicine (PZSHUTCM210618012).
An Agilent 1290 liquid chromatographic system includes a G4220A quaternary pump, a G1326C column incubator, a G4226A automatic sampler, and a G1330B degasser. The column temperature was set to 35°C. A measure of 5 µL of samples were separated in an Agilent SB-C18 column (2.1 mm ×50 mm, 1.8 μm) and eluted at 0.3 ml/min, followed by gradient elution with water (0.1% V/V formic acid) (A) and acetonitrile (B) (0–1 min, 20%–20% B; 1–3.5 min, 20%–80% B; 4–4.1 min, 80%-20% B; 4.1–6 min, 20% B). The total run time was 6 minutes.
An Agilent 1290 Infinity series UPLC system was combined with an Agilent 6460 series triple quadrupole mass spectrometer (Agilent Technologies, Santa Clara, CA, United States) to quantify all 13 analytes in an ESI-positive ionization mode. Quantitative analysis was performed in an MRM mode. The mass spectrum conditions were as follows: capillary voltage, 4000V; drying gas (N2), gas flow rate: 10 L/min; sprayer, 30 psi; gas temperature 350°C; The delta EMV (+) 200 V; collision gas (N2); dwell time, 25 ms. Agilent’s MassHunter Workstation software was used for data collection, peak area calculation, and quantitative analysis.
A measure of 50 µL of the plasma sample was mixed with 10 µL of the internal standard solution (345 ng/ml) in a 1.5-ml centrifuge tube and vortexed for 5 min. The samples were extracted by 500 µL of ethyl acetate for 5 min and centrifuged at 4°C for 10 min (18000 rpm). All the supernatants were collected into another 1.5-ml centrifuge tube, dried under a gentle stream of nitrogen at 37°C, and then added with 50 µL of 80% methanol for resolution. The resolution samples were centrifuged at 4°C for 10 min (18000 rpm), and 5 µL supernatant was extracted and injected for analysis.
Twenty-four male Sprague–Dawley rats (weigh 200–220 g) were divided into four groups with six rats in each group randomly, including three capsule groups at three different doses and one injection group. In the instructions for cinobufacini capsule and injection, the clinical dosage for adults is 2 g per 70 kg orally and 20 ml per 70 kg intravenously, converting to rat doses of 180 mg/kg and 1.8 ml/kg, respectively.
In the pre-experiments, we compared cinobufacini capsule of 180 mg/kg (one-time clinical dose) and 900 mg/kg (five times of clinical dose) and Cinobufacini injection of 1.8 ml/kg, but concentrations of some compounds in plasma were too low and difficult to be quantified. […] The experimental rats were led to fast the night and were free to get access to water for 12 h before the pharmacokinetic study. After administration, blood samples (approximately 150 μL) of rats were collected via retro-orbital sinus into heparinized centrifuge tubes at 0.05, 0.083, 0.25, 0.5, 0.75, 1, 2, 4, 6, 8, and 10 h. After centrifugation at 5,000 rpm for 10 min, the plasma was transferred to 1.5-ml polypropylene tubes and stored at −80°C until UPLC-MS/MS analysis.
GraphPad Prism software (version 8.0.2) was used to draw the mean plasma concentration–time curves of all analytes. The pharmacokinetic parameters were calculated by DAS 3.2.8 software. Meanwhile, the pharmacokinetic data on rats were presented as mean ± standard deviation (SD). Differences of pharmacokinetic parameters between groups were analyzed by the t-test using SPSS software (version 26.0). Differences were considered significant statistically when the p-values were <0.05 and very significant statistically when the p-values were <0.01.

[4] = high QC level (249.58–250.28 ng/ml)
[5] = medium QC level (49.92–50.06 ng/ml)
[6] = oral cinobufacini capsule 0.9 g/kg (low)
[7] = oral cinobufacini capsule 1.8 g/kg (medium)
[8] = oral cinobufacini capsule 3.6 g/kg (high)

| SMILES | Stability during 24 h at 4°C, RE [1, 4] [%] | Stability during 24 h at 4°C, RE ([1]; low QC level (4.99–5.00 ng/ml)) [%] | Stability during 24 h at 4°C, RE [1, 5] [%] | −80°C for 30 days, RE [1, 4] [%] | −80°C for 30 days, RE ([1]; low QC level (4.99–5.00 ng/ml)) [%] | −80°C for 30 days, RE [1, 5] [%] | Three freeze–thaw cycles, RE [1, 4] [%] | Three freeze–thaw cycles, RE ([1]; low QC level (4.99–5.00 ng/ml)) [%] | Three freeze–thaw cycles, RE [1, 5] [%] | AUC(0-inf) [2, 6] [ng·h/mL] | AUC(0-t) [2, 6] [ng·h/mL] | Cmax [2, 6] [ng/mL] | Tmax [2, 6] [min] | CL/F [2, 6] [mL/min/kg] | MRT last [2, 6] [min] | MRT inf [2, 6] [min] | half-life [2, 6] [min] | Vd/F [2, 6] [L/kg] | AUC(0-inf) [2, 7] [ng·h/mL] | AUC(0-t) [2, 7] [ng·h/mL] | other results |
| --- | --- | --- | --- | --- | --- | --- | --- | --- | --- | --- | --- | --- | --- | --- | --- | --- | --- | --- | --- | --- | --- |
| C[C@]12CC[C@H](O)C[C@H]1CC[C@@H]1[C@@H]2[C@H](O)C(=O)[C@]2(C)[C@@H](c3ccc(=O)oc3)CC[C@]12O [ABG, arenobufagin] | −4.1 | 7.4 | −5.3 | 2.3 | 7.1 | 8.3 | 0.7 | 2.5 | 3.3 | 15.5 ± 4.73 | 15.5 ± 4.73 | 13.8 ± 6.4 | 27 ± 16.2 | 109 | 86.4 ± 34.8 | 88.2 ± 36 | 49.2 ± 39.6 | 8.01 ± 5.68 | 45.9 ± 13.1 | 44.1 ± 10.6 | Cmax [2, 7]: 36.7 ± 13.1 ng/mL; Tmax [2, 7]: 19.2 ± 7.2 min; CL/F [2, 7]: 71.2 mL/min/kg; MRT last [2, 7]: 89.4 ± 61.8 min; MRT inf [2, 7]: 104 ± 77.4 min; half-life [2, 7]: 38.4 ± 9.6 min; Vd/F [2, 7]: 4.2 ± 1.25 L/kg; AUC(0-inf) [2, 8]: 87.6 ± 27.8 ng·h/mL; AUC(0-t) [2, 8]: 87.3 ± 27.4 ng·h/mL; Cmax [2, 8]: 77.9 ± 24.2 ng/mL; Tmax [2, 8]: 19.2 ± 7.2 min; CL/F [2, 8]: 77.5 mL/min/kg; MRT last [2, 8]: 72 ± 15.6 min; MRT inf [2, 8]: 73.8 ± 18.6 min; half-life [2, 8]: 53.4 ± 38.4 min; Vd/F [2, 8]: 5.66 ± 3.45 L/kg; concentrations in most rat plasma samples relative to LLOQ ([3]; after intravenous administration of cinobufacini injection, pharmacokinetic parameters could not be calculated): far below the LLOQs; detection in rat plasma ([3]; cinobufacini injection group, intravenous): could be detected |
| C[C@]12CC[C@H](O)C[C@@]1(O)CC[C@@H]1[C@@H]2CC[C@]2(C)[C@@H](c3ccc(=O)oc3)CC[C@]12O [TCG, telocinobufagin] | −4.7 | −0.3 | −4.2 | −2.1 | 0.9 | 3.8 | -6.6 | 5.8 | 0.0 | 24.5 ± 10.3 | 24.5 ± 10.3 | 35.2 ± 21 | 21.6 ± 12 | 128 | 38.4 ± 3.6 | 38.4 ± 3.6 | 9.6 ± 0.6 | 1.75 ± 0.6 | 89.9 ± 24.1 | 89.7 ± 23.8 | Cmax [2, 7]: 109 ± 41.3 ng/mL; Tmax [2, 7]: 17.4 ± 5.4 min; CL/F [2, 7]: 66.2 mL/min/kg; MRT last [2, 7]: 43.8 ± 6.6 min; MRT inf [2, 7]: 44.4 ± 6.6 min; half-life [2, 7]: 12.6 ± 6.6 min; Vd/F [2, 7]: 1.13 ± 0.37 L/kg; AUC(0-inf) [2, 8]: 217 ± 82.4 ng·h/mL; AUC(0-t) [2, 8]: 217 ± 82.4 ng·h/mL; Cmax [2, 8]: 253 ± 83.8 ng/mL; Tmax [2, 8]: 19.2 ± 7.2 min; CL/F [2, 8]: 60.3 mL/min/kg; MRT last [2, 8]: 49.8 ± 7.8 min; MRT inf [2, 8]: 49.8 ± 7.8 min; half-life [2, 8]: 31.8 ± 1.2 min; Vd/F [2, 8]: 2.76 ± 1.67 L/kg |
